How the values were obtained:
[1] = Solubility in PGME, PGMEA, CPN and CHN at 23° C.
Method: Herein, the solubility in PGME and/or PGMEA, and/or CPN, and/or CHN is defined as “Mass of resin/(Mass of resin+Mass of solvent)×100 (% by mass)”.
The amount of each compound dissolved in 1-methoxy-2-propanol (PGME), propylene glycol monomethyl ether acetate (PGMEA), cyclopentanone (CPN), and cyclohexanone (CHN) was measured at 23° C., and the results were evaluated according to the following criteria.
Evaluation A: 10% by mass or more
Evaluation B: less than 10% by mass

[2] = Thermogravimetric measurement (TG), 15% thermal weight loss temperature; type: physicochemical
[3] = 1-methoxy-2-propanol and propylene glycol monomethyl ether acetate
[4] = cyclopentanone and cyclohexanone

Compound | solubility in PGME and PGMEA [1, 3] [% by mass] | solubility in PGME and PGMEA (Evaluation) [1, 3] | 15% thermal weight loss temperature [2] [°C] | solubility in CPN and CHN [1, 4] [% by mass] | solubility in CPN and CHN (Evaluation) [1, 4]
tetraallyloxydibenzochrysene [TAODBC] | ≥ 10 | A (10% by mass or more) | – | – | –
c1ccc2c(c1)c1ccccc1c1c3ccccc3c3ccccc3c21 [DBC, dibenzo[g,p]chrysene] | – | – | ≥ 400 | ≥ 10 | A (10% by mass or more)

Reference: patent US10310377B2, “Material for forming film for lithography, composition for forming film for lithography, film for lithography, pattern forming method and purification method” (Mitsubishi Gas Chemical Company, Inc., priority 2014, dated 2019)
